Assay results published in PMC11864979, “First-in-class ultralong-target-residence-time p38α inhibitors as a mitosis-targeted therapy for colorectal cancer” (Nature Cancer, 2025).
Values joined by “and” are separate entries in the source; they are usually repeats but may differ in a detail not shown here. Equal entries are not always repeated. Where two headings read alike, the source gives them in different places.

Assays:
HT-29 = test: cell viability in human CRC cell line HT-29; assay type: cell-based; settings: Homo sapiens, ED Fig. 9h, replicates, read-out: HT-29 Cell viability (%); for viability at 0.1235 µM: HT-29, 0.1235 µM; for viability at 0.3704 µM: HT-29, 0.3704 µM; for viability at 1.1111 µM: HT-29, 1.1111 µM; for viability at 3.3333 µM: HT-29, 3.3333 µM; for viability at 10 µM: HT-29, 10.0000 µM
Description: (§1) To generate KAP^2D cells, KAP organoids were isolated from Matrigel, fragmented by mechanical dissociation and plated without any extracellular matrix on common cell culture dishes. Phoenix-Eco packaging cells (CRL-3214), HCT-15 (CCL-225), HCT 116 (CCL-247), COLO 205 (CCL-222), LS 174T (CL-188), RKO (CRL-2577) and HT-29 (HTB-38) were obtained from the American Type Culture Collection. The cells were cultured at 37 °C and 7% CO2 with RPMI (KAP^2D cells) or DMEM (other cell lines), supplemented with 10% FBS and penicillin–streptomycin. KAP^2D cells were authenticated using PCR (Kras locus and Trp53 locus). Phoenix-Eco packaging cells and HCT-15, HCT 116, COLO 205, LS 174T, RKO and HT-29 cells were authenticated by the provider using short tandem repeat profiling. No commonly misidentified cell lines were used. Mycoplasma contamination was excluded by a PCR-based analysis.
(§2) For in vitro treatment studies, organoids were mechanically dissociated and digested using TrypLE supplemented with 100 µg ml^−1 DNaseI and 10.5 µM Y-27632 dihydrochloride (Invitrogen) at 37 °C. A total of 1,000–2,000 single cells were plated per well in white 96-well plates (Greiner) in culture medium containing 10% GFR Matrigel or Cultrex BME. The treatment with doxycycline (5 µg ml^−1), pharmacological inhibitors or corresponding volumes of DMSO was started 24 h after plating. Doxycycline was obtained from Sigma-Aldrich. […] Cell viability was measured by means of CellTiter-Glo 3D or CellTiter-Glo 2.0 reagent (Promega) according to the manufacturers’ instructions and the Infinite M Plex reader (Tecan, i-control version 3.9.1 software). Results were normalized to vehicle (DMSO) or to shNC. For cell-doubling assays, the cell number was quantified at the corresponding time points using Guava EasyCyte flow cytometer (Luminex, CytoSoft v5.2 software).

HCT 116 = test: cell viability in human CRC cell line HCT 116; assay type: cell-based
Description: as §1, §2

PDO9 = test: cell viability in patient-derived CRC organoids PDO9; assay type: cell-based, human
Description: as §2

KAP^2D cells = test: quantification of viable KAP^2D cells over time (cell-doubling assay); assay type: cell-based, mouse; settings: Fig. 4i
Description: The treatment with doxycycline (5 µg ml^−1), pharmacological inhibitors or corresponding volumes of DMSO was started 24 h after plating. […] Cell viability was measured by means of CellTiter-Glo 3D or CellTiter-Glo 2.0 reagent (Promega) according to the manufacturers’ instructions and the Infinite M Plex reader (Tecan, i-control version 3.9.1 software). Results were normalized to vehicle (DMSO) or to shNC. For cell-doubling assays, the cell number was quantified at the corresponding time points using Guava EasyCyte flow cytometer (Luminex, CytoSoft v5.2 software).

COLO 205 = test: cell viability in human CRC cell line COLO 205; assay type: cell-based
Description: as §1, §2

subcutaneous KAP CRCs = test: treatment of subcutaneous KAP tumors in wild-type mice; assay type: in vivo, mouse; settings: for Tumor volume: single tumors, Fig. 5i

Question: For `CNC(=O)c1ccc2c(c1)C(=O)c1ccc(Nc3ccc(F)c(NC(=O)C4CC4)c3)cc1CC2` [Compound 2015], which viability at 0.0412 µM (HT-29; HT-29, 0.0412 µM, first experiment) is on record?
Answer: 89.4%

Question: What about the viability at 0.1235 µM (HT-29; Repetition) of the same molecule?
Answer: 73%

Question: What about the viability at 0.1235 µM (HT-29; first experiment) of the same molecule?
Answer: 79.7%

Question: And the viability at 0.3704 µM (HT-29; Repetition)?
Answer: 33.4%

Question: What about the viability at 0.3704 µM (HT-29; first experiment) of the same molecule?
Answer: 12.1%

Question: What about the viability at 1.1111 µM (HT-29; Repetition) of the same molecule?
Answer: 7.21%

Question: And the viability at 1.1111 µM (HT-29; first experiment)?
Answer: 7.57%

Question: What about the viability at 3.3333 µM (HT-29; Repetition) of the same molecule?
Answer: 6.86%

Question: And the viability at 3.3333 µM (HT-29; first experiment)?
Answer: 10.2%

Question: What about the viability at 10 µM (HT-29; Repetition) of the same molecule?
Answer: 6.64%

Question: And the viability at 10 µM (HT-29; first experiment)?
Answer: 9.63%

Question: And the “HCT 116 Cell viability (%)” value (HCT 116; 0.0137 µM, 4 d)?
Answer: 85.88% and 79.68% and 90.88% and 87.20%

Question: What about the “HCT 116 Cell viability (%)” value (HCT 116; 0.0412 µM, 4 d) of the same molecule?
Answer: 87.17% and 85.37% and 79.18% and 81.34% and 80.02%

Question: What about the “HCT 116 Cell viability (%)” value (HCT 116; 0.1235 µM, 4 d) of the same molecule?
Answer: 87.59% and 86.63% and 89.97% and 77.29% and 78.27%

Question: And the “HCT 116 Cell viability (%)” value (HCT 116; 0.3704 µM, 4 d)?
Answer: 48.15% and 38.21% and 37.69% and 25.63% and 24.67% and 24.34%

Question: What about the “HCT 116 Cell viability (%)” value (HCT 116; 1.1111 µM, 4 d) of the same molecule?
Answer: 30.94% and 32.21% and 17.75% and 19.27% and 17.57%

Question: And the IC50 (HCT 116; Homo sapiens, 96 h, HCT 116, 4 d of treatment)?
Answer: 0.223 µM

Question: What about the viability at 0.0137 µM (HCT 116; Homo sapiens, HCT-116, 96 h, 0.0137 µM, 4 d, read-out: HCT 116 Cell viability (%)) of the same molecule?
Answer: 90.6%

Question: What about the viability at 0.0412 µM (HCT 116; Homo sapiens, HCT-116, 96 h, 0.0412 µM, 4 d, read-out: HCT 116 Cell viability (%)) of the same molecule?
Answer: 90.7%

Question: And the viability at 0.1235 µM (HCT 116; Homo sapiens, HCT-116, 96 h, 0.1235 µM, 4 d, read-out: HCT 116 Cell viability (%))?
Answer: 90.7%

Question: And the viability at 1.1111 µM (HCT 116; Homo sapiens, HCT-116, 96 h, 1.1111 µM, 4 d)?
Answer: 28.5%

Question: What about the viability at 0.5 µM (PDO9; Homo sapiens, 96 h, PDO9, 0.5 µM, 4 d, read-out: Cell viability (%)) of the same molecule?
Answer: 20.8%

Question: And the viability at 1 µM (PDO9; Homo sapiens, 96 h, PDO9, 1 µM, 4 days)?
Answer: 9.78%

Question: And the “Cell viability (%)” value (PDO9; PDO9, 0.5 µM, 4 d, 0.5 µM)?
Answer: 30.12% and 37.18%

Question: What about the “Cell viability (%)” value (PDO9; PDO9, 1 µM, 4 days, 1 µM) of the same molecule?
Answer: 8.84% and 14.14%

Question: And the Number of cells (KAP^2D cells; 0 h of treatment)?
Answer: 41307.05 and 44263.95 and 43595.63 and 48502.24 and 40389.64

Question: And the Number of cells (KAP^2D cells; 12 h of treatment)?
Answer: 56623.49 and 67064.09 and 57491.63 and 61648.82 and 68603.21 and 63323.28

Question: And the Number of cells (KAP^2D cells; 24 h of treatment)?
Answer: 66705.14 and 74668.97 and 68938.05 and 94046.77 and 77517.08 and 74107.42

Question: What about the Number of cells (KAP^2D cells; 36 h of treatment) of the same molecule?
Answer: 95730.63 and 106064.51 and 93579.45 and 106339.60 and 110499.20 and 87144.95

Question: What about the Number of cells (KAP^2D cells; 48 h of treatment) of the same molecule?
Answer: 89649.37 and 121264.28 and 95171.59 and 108694.60 and 121883.40 and 116976.50

Question: And the Number of cells (KAP^2D cells; 60 h of treatment)?
Answer: 136203.08 and 127468.86 and 129997.76 and 163066.30 and 164108.30 and 135189.10

Question: And the “COLO 205 Cell viability (%)” value (COLO 205; 0.0137 µM, 4 d)?
Answer: 86.20% and 87.62% and 93.54% and 93.70% and 89.28%

Question: What about the “COLO 205 Cell viability (%)” value (COLO 205; 0.0412 µM, 4 d) of the same molecule?
Answer: 89.23% and 86.13% and 86.46% and 84.55% and 84.12%

Question: What about the “COLO 205 Cell viability (%)” value (COLO 205; 0.1235 µM, 4 d) of the same molecule?
Answer: 81.05% and 83.81% and 80.44% and 77.94% and 85.49% and 51.55%

Question: And the “COLO 205 Cell viability (%)” value (COLO 205; 1.1111 µM, 4 d)?
Answer: 10.16% and 10.58% and 11.54% and 5.54% and 4.72% and 3.60%

Question: What about the “COLO 205 Cell viability (%)” value (COLO 205; 3.3333 µM, 4 d) of the same molecule?
Answer: 11.93% and 11.65% and 12.34% and 6.53% and 6.09% and 5.93%

Question: And the “COLO 205 Cell viability (%)” value (COLO 205; 10.0000 µM, 4 d)?
Answer: 14.19% and 14.06% and 18.78% and 17.19% and 10.60%

Question: And the IC50 (COLO 205; Homo sapiens, 96 h, COLO 205, 4 d of treatment)?
Answer: 0.151 µM

Question: And the viability at 0.0137 µM (COLO 205; Homo sapiens, COLO 205, 96 h, 0.0137 µM, 4 d)?
Answer: 88.4%

Question: And the viability at 0.0412 µM (COLO 205; Homo sapiens, COLO 205, 96 h, 0.0412 µM, 4 d)?
Answer: 88.8%

Question: What about the viability at 10 µM (COLO 205; Homo sapiens, COLO 205, 96 h, 10.0000 µM, 4 d, read-out: COLO 205 Cell viability (%)) of the same molecule?
Answer: 13.9%

Question: And the “subcutaneous KAP tumor development (in words)” value (subcutaneous KAP CRCs; 20 mg kg^−1 daily, oral gavage)?
Answer: pronounced remission of CRC

Question: What about the Tumor volume (subcutaneous KAP CRCs; 2 d of treatment) of the same molecule?
Answer: 87.5 mm³ and 75.0 mm³ and 126.0 mm³ and 144.0 mm³

Question: What about the Tumor volume (subcutaneous KAP CRCs; 4 d of treatment) of the same molecule?
Answer: 48.0 mm³ and 56.0 mm³ and 40.0 mm³
